The values below come from the Deep4Chem optical property database.

The series is described as follows: solvent given as SMILES.

The structures appear in SMILES notation.

Consider `O=c1c2cc(F)c(N3CCCCC3)cc2oc2cc(N3CCCCC3)c(F)cc12`, for which the emission maximum (in CCO) came to 457 nm.
`CC(=O)Nc1ccc(C2=C/C(=C\c3ccc(C#N)cc3)C(=O)O2)cc1` returned an emission maximum (in C1COCCO1) of 521 nm.
As for `CCOC(=O)c1c(-c2cc3ccc(OCC=C(C)C)cc3oc2=O)nn(-c2cccc(Cl)c2)c1C(=O)OCC`, the emission maximum (in ClCCl) worked out at 426 nm.
Regarding `CCCCCCCCCCCCCCCCCCN1C(=O)c2cccc3c(OCCN(C)C)ccc(c23)C1=O`, the emission maximum runs as follows: (in CC#N) 514 nm; (in CC(C)=O) 507 nm; (in CCO) 510 nm; (in CCOC(C)=O) 497 nm; (in CCOCC) 492 nm; (in CN(C)C=O) 516 nm. This molecule yielded an emission maximum (in ClCCl) of 502 nm.
`CC[N+]1(CC)CN2C(=N1)C(C(=O)O)=Cc1c(OC)ccc(OC)c12` came in with an emission maximum (in O) of 515 nm.
Regarding `C(=C\c1cc(/C=C/c2ccc(-n3c4ccccc4c4ccccc43)cc2)cc(/C=C/c2ccc(-n3c4ccccc4c4ccccc43)cc2)c1)/c1ccc(-n2c3ccccc3c3ccccc32)cc1`, the emission maximum amounted to 403 nm (in C1CCOC1), 429 nm (in CC#N), 401 nm (in Cc1ccccc1) and 419 nm (in ClCCl).
Turning to `Nc1ccc2c(c1)C(=O)c1ccccc1-2`, the emission maximum by setting is: (in C1CCCCC1) 569 nm; (in c1ccccc1) 622 nm.
`F[B-]1(F)n2cccc2C(c2ccccc2)=C2C=CC(c3cccc(OC4=[N+]5C(=C(c6ccccc6)c6cc(Br)c(-c7ccc[nH]7)n6[B-]5(F)F)C=C4Br)c3)=[N+]21` yielded an emission maximum (in ClC(Cl)Cl) of 644 nm.
Take `COc1ccc(/C=C/c2ccccc2)cc1OC`: the emission maximum by setting is: (in C1CCCCC1) 372 nm; (in CC#N) 385 nm; (in CC(C)O) 374 nm; (in CCCCOCCCC) 375 nm; (in CCOC(C)=O) 382 nm; (in CCOCC) 373 nm.
As for `F[Si-](F)(c1ccccc1)(c1c2ccccc2cc2ccccc12)c1c2ccccc2cc2ccccc12`, where the note is “in C1CCOC1”, the emission maximum is 395 nm.
Turning to `Cc1nc2c(c[n+]1C)CN1C(=O)N([C@H]3O[C@@H](CO)[C@H](O)[C@@H]3O)C=CC1=N2`, the emission maximum was determined as 416 nm (in CC#N); 418 nm (in CC(C)=O); 417 nm (in CCCCO); 417 nm (in CCCO); 417 nm (in CCO); 417 nm (in CO). The same molecule registered an emission maximum (in O) of 414 nm, an emission maximum (in [2H]OC) of 417 nm, an emission maximum (in [2H]OCC) of 417 nm and an emission maximum (in [2H]O[2H]) of 414 nm.
In the case of `CCCCN(CCCC)c1ccc(C#Cc2cc(C#Cc3ccc(N(CCCC)CCCC)cc3)c(C#Cc3c(F)c(F)c(F)c(F)c3F)cc2C#Cc2c(F)c(F)c(F)c(F)c2F)cc1`, the emission maximum runs as follows: (in ClCCl) 555 nm; (in c1ccccc1) 512 nm.
Take `O=C(O)CCCCCNC(=O)c1cccc2c(=O)c3ccccc3[nH]c12`: the emission maximum (in O) came to 438 nm.
`N#Cc1c(N2CCCCC2)cc(-c2ccc3ccc4cccc5ccc2c3c45)c2c1C(=O)c1ccccc1-2`: under “in C1CCOC1”, the emission maximum is given as 473 nm.
In the case of `CC1(C)C(/C=C/c2cc3ccc(O)cc3oc2=O)=[N+](CCCS(=O)(=O)[O-])c2ccc(S(=O)(=O)O)cc21`, the emission maximum worked out at 648 nm (in CCO), 604 nm (in CS(C)=O) and 636 nm (in O).
Take `c1ccc(-c2nnc(-c3cc(-n4c5ccccc5c5ccccc54)c(-n4c5ccccc5c5ccccc54)cc3-c3nnc(-c4ccccc4)o3)o2)cc1`: the emission maximum was 525.15 nm (in CC#N), 466 nm (in Cc1ccccc1) and 500.52 nm (in ClCCl).
Turning to `CCCCn1c(-c2ccc(-c3nnc(-c4ccc(-c5nc6c7ccccc7c7ccccc7c6n5CCCC)cc4)o3)cc2)nc2c3ccccc3c3ccccc3c21`, the emission maximum (in ClCCl) was 451 nm.
`Cc1cc(C)n2c1C=C1C(=O)N(C)C(c3ccc([N+](=O)[O-])cc3)=[N+]1[B-]2(F)F` yielded an emission maximum (in CCCCCC) of 587 nm.
For the molecule `CN(C)CCN(Cc1c2ccccc2cc2ccccc12)c1ccc([N+](=O)[O-])cc1[N+](=O)[O-]`, the emission maximum runs as follows: (in C1CCCCC1) 391 nm; (in C1CCOC1) 394 nm; (in CC#N) 394 nm; (in CC(C)=O) 393 nm; (in CCO) 394 nm; (in CN(C)C=O) 396 nm. The emission maximum by setting is: (in CO) 392 nm; (in CS(C)=O) 398 nm; (in ClC(Cl)Cl) 394 nm; (in ClCCl) 393 nm.
`Cc1cccc(-c2c3ccccc3c(-c3cccc(C)n3)c3ccccc23)n1` displayed an emission maximum (in ClCCl) of 428 nm.
Turning to `CC(C)(C)c1ccc(-c2ccc(C(C)(C)C)cc2)cc1`, the emission maximum (in C1CCCCC1) came out at 312 nm.
For the molecule `CC1=C(/C=C/c2ccccc2)C2=Cc3c(/C=C/c4ccccc4)c(C)c(C)n3[B-](F)(F)[N+]2=C1C`, the emission maximum (in CC#N) was 589 nm.
As for `CCCCCCOc1cc(/C=C/c2cc(OCCCCCC)c(/C=C/c3cc(OCCCCCC)c(/C=C4\C(=O)c5ccccc5C4=C(C#N)C#N)cc3OCCCCCC)cc2OCCCCCC)c(OCCCCCC)cc1/C=C1\C(=O)c2ccccc2C1=C(C#N)C#N`, the emission maximum (in ClCCl) is given as 765 nm.
Consider `Cc1ccc2nc3cc4c(cc3c(-c3ccccc3)c2c1)[Si](C)(C)O[Si](C)(C)O[Si]4(C)C`, for which the emission maximum (in ClCCl) is recorded as 502 nm.
As to `Cn1nc(-c2ccc(C#N)cc2)cc1-c1ccccc1`, for the setting “in ClCCl”, the emission maximum turned out to be 348 nm.
As for `CCCCCCCCCCCCOc1cc(/C=C/c2ccc3c(c2)C(CC)(CC)c2cc(N4c5ccccc5Sc5ccccc54)ccc2-3)c(OCCCCCCCCCCCC)cc1/C=C/c1ccc2c(c1)C(CC)(CC)c1cc(N3c4ccccc4Sc4ccccc43)ccc1-2`, the emission maximum (in C1CCOC1) is on record as 474 nm; the emission maximum (in CC#N) is 473 nm; the emission maximum (in CCCCCC) came to 477 nm; the emission maximum (in Cc1ccccc1) was 468 nm; the emission maximum (in ClCCl) is recorded as 477 nm.
Turning to `F[B-]1(F)Oc2c(ccc3c4c(ccc23)C=[N+](c2ccccc2)[B-](F)(F)O4)C=[N+]1c1ccccc1`, the emission maximum (in Cc1ccccc1) worked out at 538 nm and the emission maximum (in ClCCl) was 533 nm.
`CC(C)(C)c1ccc(-c2nnc(-c3c(-n4c5ccccc5c5ccccc54)c(-n4c5ccccc5c5ccccc54)c(-c4nnc(-c5ccc(C(C)(C)C)cc5)o4)c(-n4c5ccccc5c5ccccc54)c3-n3c4ccccc4c4ccccc43)o2)cc1`: the emission maximum (in Cc1ccccc1) was determined as 569 nm and the emission maximum (in c1cc(-n2c3ccccc3c3ccccc32)nc(-n2c3ccccc3c3ccccc32)c1) is 527 nm.
With `c1ccc(N(c2ccccc2)c2ccc(-c3ccc(-c4ccc(-c5cccs5)c5nsnc45)s3)cc2)cc1`, the emission maximum (in ClC(Cl)Cl) came out at 670 nm.
As to `CCC1(CC)c2cc(/C=C/c3ccc(/C=C/c4ccc5c(c4)C(CC)(CC)c4cc(N6c7ccccc7Sc7ccccc76)ccc4-5)cc3)ccc2-c2ccc(N3c4ccccc4Sc4ccccc43)cc21`, the emission maximum was 434 nm (in C1CCOC1); 457 nm (in CC#N); 455 nm (in CCCCCC); 462 nm (in Cc1ccccc1); 435 nm (in ClCCl).
Under “in ClCCl”, `C(=C\c1ccc(-c2ccncc2)cc1)/c1ccc(-c2ccncc2)cc1` returned an emission maximum of 387 nm.
For `CC(C)(C)c1ccc2oc3nc4oc5ccc(N6c7ccccc7Sc7ccccc76)cc5c4cc3c2c1`, the emission maximum (in ClC(Cl)Cl) was found to be 371 nm.
Consider `CC(C)(C)c1ccc2c(c1)c1cc(C(C)(C)C)ccc1n2-c1ccc(C#Cc2ccc(C=C(C#N)C#N)cc2)cc1`, for which the emission maximum by setting is: (in CC#N) 490 nm; (in CCCCC) 448 nm; (in Cc1ccccc1) 554 nm; (in ClCCl) 534 nm.
With `Cc1ccc(C2CC(c3ccc(O)cc3)=NN2c2ccc(S(N)(=O)=O)cc2)cc1` (centres undefined), the emission maximum by setting is: (in C1CCOC1) 417 nm; (in C1COCCO1) 417 nm; (in CC#N) 417 nm; (in CC(C)O) 423 nm; (in CCO) 428 nm; (in CCOC(C)=O) 415 nm. For the same molecule, the emission maximum reads like this: (in CN(C)C=O) 422 nm; (in CO) 432 nm; (in CS(C)=O) 424 nm; (in O) 449 nm.
Take `CC1(C)CC(/C=C/c2cn(-c3ccccc3)nc2-c2ccccc2)=CC(=C(C#N)C#N)C1`: the emission maximum reads like this: (in C1CCOC1) 556 nm; (in C1COCCO1) 548 nm; (in CCO) 564 nm; (in CCOC(C)=O) 564 nm; (in CN(C)C=O) 565 nm; (in CO) 561 nm. For the same molecule, the emission maximum came out at 578 nm (in CS(C)=O), 542 nm (in Cc1ccccc1), 550 nm (in ClC(Cl)Cl) and 550 nm (in ClCCl).
Take `O=C(O)C1=C(C(=O)O)C2=C[C@H]3c4ccccc4[C@]2(S1)c1ccccc13`: where the note is “in ClCCl”, the emission maximum stood at 503 nm.
Still for that read-out and setting: the same measure for `CC1(C)c2cc(-c3ccc4ccc5cccc6ccc3c4c56)ccc2-c2ccc(-c3ccc4ccc5cccc6ccc3c4c56)cc21`: 421 nm.
Turning to `CCCSc1ccc2n1[B-](F)(F)[N+]1=C(SC#N)C=CC1=C2c1ccccc1`, the emission maximum runs as follows: (in CC#N) 567 nm; (in CCCCCC) 568 nm; (in CCOC(C)=O) 567 nm; (in CO) 563 nm; (in ClCCl) 569 nm.
The molecule `CCCCCCc1ccc(-n2c3c4cccc(OC)c4nc(-c4ccc(C)cc4)c3c3c2c2c(-c4ccc(C)cc4)nc4c(OC)cccc4c2n3-c2ccc(CCCCCC)cc2)cc1` yielded an emission maximum (in ClC(Cl)Cl) of 464 nm.
Regarding `C(=C1c2ccccc2CCc2ccccc21)c1ccc(-c2ccc(C=C3c4ccccc4CCc4ccccc43)cc2)cc1`, the emission maximum (in C1CCOC1) came to 394 nm.
Where the note is “in CC#N”, `F[B-]1(F)n2c(c(Sc3ccccc3)c3c2-c2ccccc2CC3)C=C2C(Sc3ccccc3)=C3CCc4ccccc4C3=[N+]21` showed an emission maximum of 661 nm.
